Like-named read-outs stand apart in the source and are kept apart here.

The subject of test [1] is UMUC9 cells. Kind of test: Proliferation UMUC9 H2B-GFP assay (Incucyte). The class given is cell-based. The note with it: 7 days of treatment; for Emax: UM-UC-9, 168 h, % efficacy (span); for IC50: UM-UC-9, relative IC50, Day 1 subtracted, percentage of DMSO control. The procedure: Proliferation UMUC9 H2B-GFP assay
Instrument: Incucyte® (Sartorius).
Description: Incucyte® Proliferation Assay measures cell proliferation based on nuclei count using live-cell time-lapse imaging. […] Measurements were performed on the day of treatment (Day 1 reading) and after 7 days of treatment (Day 8 reading). Green fluorescence in cell nuclei is measured using the instrument (Image Channels: Phase, Green; Acquisition time: 300 ms; Magnification: 4×).
Analysis: Selected metrics for analysis: Phase Object Confluence (Percent), Nuclei Count (1/Well) and Total Nuclei Area (μm^2/Well). Day 1 measurements were subtracted from each Day 8 measurement and expressed as percentage of the vehicle (DMSO) control. Percentage proliferation values were then plotted against compound concentration using GraphPad PRISM software. The Sigmoidal 4PL X is log (concentration) model of […] was used. Relative IC50 values and % efficacy (span) is reported below.

Test [2] deals with T1, PPARG receptors (Homo sapiens, UniProt P37231).
T1 construct: leading to PPARG dependent expression of the NanoLuc@ Luciferase; endogenous in cells
T1 sequence (P37231 1-505): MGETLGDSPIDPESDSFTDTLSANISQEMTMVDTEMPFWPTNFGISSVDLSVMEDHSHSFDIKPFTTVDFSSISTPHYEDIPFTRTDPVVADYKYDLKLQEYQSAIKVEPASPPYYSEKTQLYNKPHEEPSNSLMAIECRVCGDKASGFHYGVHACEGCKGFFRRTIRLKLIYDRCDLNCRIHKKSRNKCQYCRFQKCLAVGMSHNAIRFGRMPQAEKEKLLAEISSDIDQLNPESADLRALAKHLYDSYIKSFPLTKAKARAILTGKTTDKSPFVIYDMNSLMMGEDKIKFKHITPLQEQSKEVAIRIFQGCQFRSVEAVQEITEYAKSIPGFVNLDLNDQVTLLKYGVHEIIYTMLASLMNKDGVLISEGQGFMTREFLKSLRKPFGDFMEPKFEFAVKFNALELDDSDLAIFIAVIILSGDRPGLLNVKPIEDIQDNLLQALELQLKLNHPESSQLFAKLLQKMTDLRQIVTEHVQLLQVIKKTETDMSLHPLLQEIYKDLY
Kind of test: RT-112-FABP4-NLuc Reporter Gene Assay (inverse agonism). The class given is cell-based. The conditions noted are these: incubated over night; for IC50: 50 μM to 0.03 nM; for Emax: RT112/84, read-out: PPARG_RT-112_FABP4_NLuc_inverse agonist Efficacy - [%], bladder cancer cell line RT-112/84, NanoLuc in FABP4 3′ UTR. The procedure: Inverse agonists reduce the basal expression of the Luciferase resulting in a decrease of the Luciferase signal after addition of substrate and cell lysis. To exclude toxic effects of the compounds a parallel measurement of cell viability was performed based on the CellTiter Glo Assay (Promega).
On the next day 10 μl of test compounds dissolved in DMEM/F12 2% FBS and 0,01% BSA are placed in the wells of the microtiter plates. Final concentrations ranged from 50 μM to 0.03 nM. […] On the next day the NanoLuc Luciferase activity was measured by addition of 40 μl of NanoLuc substrate and lysis buffer (Promega, Madison, Wisconsin) diluted in 2 mM Ca-tyrode buffer (20 mM HEPES, 130 mM NaCl, 5 mM KCl, 5 mM NaHCO3, 2 mM MgCl2, pH 7,4). The resulting light signal was measured for 60 seconds in a luminometer. Every sample was tested in quadruples and mean values were used to calculate the IC50 values and efficacies of the compounds.
Background: In a reporter assay the amount or activity of a reporter protein is the signal.

Where [3] appears, read: PPARG_RT-112_FABP4_NLuc_inverse agonist IC50 - [mol/l], bladder cancer cell line RT-112/84, NanoLuc in FABP4 3′ UTR.
The mark [4] stands for this setting: read-out: PPARG_RT-112_FABP4_NLuc_inverse agonist IC50 - [mol/l], bladder cancer cell line RT-112/84, NanoLuc in FABP4 3′ UTR.

In the case of `Cc1ccccc1CNC(=O)c1cc(Cl)c(Cl)c(C(=O)Nc2ccccc2)c1` [Example 17, 4,5-dichloro-N^1-[(2-methylphenyl)methyl]-N^3-phenylbenzene-1,3-dicarboxamide], the results for the Emax in test [1] and in test [2] were 28.3% and 71%, respectively. The IC50 in test [1] worked out at 1.52 nM; in test [2] (setting [3]), 1.3 nM.

In the case of `Cc1cc(OC(F)F)ccc1NC(=O)c1cc(C(=O)NCc2ccc(F)c(F)c2)cc(Cl)c1Cl` [Example 7, 4,5-dichloro-N^3-[4-(difluoromethoxy)-2-methylphenyl]-N^1-[(3,4-difluorophenyl)methyl]benzene-1,3-dicarboxamide], the Emax worked out at 64.9% in test [1] and 102% in test [2]. The values for the IC50 in test [1] and in test [2] (setting [3]) were 9.09 nM and 1.4 nM, respectively.

`COCCOc1ccc(NC(=O)c2cc(C(=O)NCc3ccc(F)c(F)c3)c(F)c(C)c2Cl)c(C)c1` [Example 19, 4-chloro-N^1-[(3,4-difluorophenyl)methyl]-6-fluoro-N^3-[4-(2-methoxyethoxy)-2-methylphenyl]-5-methylbenzene-1,3-dicarboxamide]: the Emax stood at 65.9% in test [1] and 144% in test [2]. In addition, the IC50 in test [1] amounted to 11.6 nM; in test [2] (setting [3]) it was 1.22 nM.

As for `O=C(NCc1ccccc1)c1cc(Cl)c(Br)c(C(=O)Nc2ccccc2)c1` [Example 49, N^1-benzyl-4-bromo-5-chloro-N^3-phenylbenzene-1,3-dicarboxamide], the Emax in test [1] came out at 34.5%; in test [2] it was 72.5%. For the same compound, the IC50 in test [1] worked out at 3170 nM; in test [2] (setting [3]), 0.99 nM.

`O=C(NCc1ccccc1)c1ccc(Br)c(C(=O)Nc2ccccc2)c1` [Example 48, N^1-benzyl-4-bromo-N^3-phenylbenzene-1,3-dicarboxamide] had an Emax in test [1] of 43.1%.

`O=C(NCc1ccccc1)c1ccc(Cl)c(C(=O)Nc2ccccc2)c1` [Example 43, N^1-benzyl-4-chloro-N^3-phenylbenzene-1,3-dicarboxamide]: the Emax in test [1] stood at 27.1%.

Turning to `Cc1c(F)c(C(=O)NCc2ccc(F)c(F)c2)cc(C(=O)Nc2ccc(OCC(C)(C)O)cn2)c1Cl` [Example 52, 4-chloro-N^1-[(3,4-difluorophenyl)methyl]-6-fluoro-N^3-[5-(2-hydroxy-2-methylpropoxy)pyridin-2-yl]-5-methylbenzene-1,3-dicarboxamide], the Emax in test [1] worked out at 28.6%; in test [2], 96%. Besides, the IC50 in test [1] is 746 nM; in test [2] (setting [3]), 1.5 nM.

For `Cc1cc(OC(F)F)ccc1NC(=O)c1cc(C(=O)NC(CO)c2ccc(F)cc2)c(F)cc1Cl` (stereo not drawn) [Example 2, 4-chloro-N^3-[4-(difluoromethoxy)-2-methylphenyl]-6-fluoro-N^1-[1-(4-fluorophenyl)-2-hydroxyethyl]benzene-1,3-dicarboxamide], the Emax in test [1] was 72.7%; in test [2], 110%. Besides, the IC50 in test [1] came out at 204 nM; in test [2] (setting [3]), 33 nM.

For the compound `O=C(NCc1ccccc1)c1cc(Cl)c(Cl)c(C(=O)Nc2ccc(OC(F)F)cc2)c1F` [Example 31, N^1-benzyl-4,5-dichloro-N^3-[4-(difluoromethoxy)phenyl]-2-fluorobenzene-1,3-dicarboxamide], the IC50 in test [1] is over 6000 nM; in test [2] (setting [3]) it was 0.3 nM. Further, in test [2], the Emax came to 86.8%.

With `COCCOCc1cc(F)ccc1CNC(=O)c1cc(C(=O)Nc2ccc(C(F)(F)F)cc2C)c(Cl)cc1F` [Example 26, 4-chloro-6-fluoro-N^1-({4-fluoro-2-[(2-methoxyethoxy)methyl]phenyl}methyl)-N^3-[2-methyl-4-(trifluoromethyl)phenyl]benzene-1,3-dicarboxamide], the Emax in test [1] turned out to be 73.4%; in test [2], 94%. Moreover, the IC50 stood at 27.5 nM in test [1] and 7.35 nM in test [2] (setting [4]).

In test [1], `CC(C)(O)c1ccc(NC(=O)c2cc(C(=O)NCc3ccc(F)c(F)c3)c(F)cc2Cl)cc1` [Example 51, 4-chloro-N^1-[(3,4-difluorophenyl)methyl]-6-fluoro-N^3-[4-(2-hydroxypropan-2-yl)phenyl]benzene-1,3-dicarboxamide] had an Emax of 69.2% and an IC50 of 38.5 nM.

For the compound `O=C(NCc1ccc(F)c(F)c1)c1cc(C(=O)Nc2ccccn2)c(Cl)cc1F` [Example 34, 4-chloro-N^1-(3,4-difluorobenzyl)-6-fluoro-N^3-(pyridin-2-yl)isophthalamide], the Emax in test [1] is 100%; in test [2], 95%. The IC50 in test [2] (setting [4]) came to 54.5 nM.

`O=C(NCc1ccccc1)c1cc(C(=O)Nc2ccccc2)c(Cl)cc1F` [Example 28, N^1-benzyl-4-chloro-6-fluoro-N^3-phenylbenzene-1,3-dicarboxamide] showed an Emax in test [1] of 31.2%.

For the compound `CCCOCc1cc(F)ccc1CNC(=O)c1cc(C(=O)Nc2ccc(C(F)(F)F)cc2C)c(Cl)cc1F` [Example 4, 4-chloro-6-fluoro-N^1-{[4-fluoro-2-(propoxymethyl)phenyl]methyl}-N^3-[2-methyl-4-(trifluoromethyl)phenyl]benzene-1,3-dicarboxamide], the figures for the Emax in test [1] and in test [2] were 138% and 87%, respectively. Besides, the IC50 in test [1] was determined as 3.22 nM; in test [2] (setting [3]) it was 8.35 nM.

Turning to `COc1ccccc1CNC(=O)c1cc(Cl)c(Cl)c(C(=O)Nc2ccccc2)c1` [Example 15, 4,5-dichloro-N-[(2-methoxyphenyl)methyl]-N^3-phenylbenzene-_,3-dicarboxamide], the Emax in test [1] was 60.6%; in test [2], 70.7%. The IC50 was found to be 7.96 nM in test [1] and 0.52 nM in test [2] (setting [3]).

In test [1], `COc1ccccc1CNC(=O)c1ccc(Cl)c(C(=O)Nc2ccccc2)c1` [Example 46, 4-chloro-N^1-[(2-methoxyphenyl)methyl]-N^3-phenylbenzene-1,3-dicarboxamide] returned an Emax of 70.6% and an IC50 of 2630 nM.

`Cc1cc(N2CCOCC2)cnc1NC(=O)c1cc(C(=O)NCc2ccc(F)c(F)c2)c(F)cc1Cl` [Example 41, 4-chloro-N^1-(3,4-difluorobenzyl)-6-fluoro-N^3-(3-methyl-5-morpholinopyridin-2-yl)isophthalamide]: the Emax in test [1] turned out to be 98.9%.

With `O=C(NCc1ccc(F)cc1)c1ccc(Cl)c(C(=O)Nc2ccccc2)c1` [Example 45, 4-chloro-N^1-[(4-fluorophenyl)methyl]-N^3-phenylbenzene-1,3-dicarboxamide], in test [1], the Emax amounted to 57.6%.

In test [2] (setting [3]), `Cc1cc(C(F)(F)F)ccc1NC(=O)c1cc(C(=O)NC(CO)c2ccccc2)c(F)cc1Cl` (single isomer, unassigned) [Example 29, 4-chloro-6-fluoro-N^1-[(1R*)-2-hydroxy-1-phenylethyl]-N^3-[2-methyl-4-(trifluoromethyl)phenyl]benzene-1,3-dicarboxamide] registered an IC50 of 130 nM. For the same compound, the “PPARG_RT-112_FABP4_NLuc_inverse agonist Efficacy - [%]” value in test [2] (bladder cancer cell line RT-112/84, NanoLuc in FABP4 3′ UTR) came to 81.00%.

`O=C(NCc1ccccc1)c1cc(Cl)c(Cl)c(C(=O)Nc2ccc(Cl)cn2)c1F` [Example 32, N^1-benzyl-4,5-dichloro-N^3-(5-chloropyridin-2-yl)-2-fluorobenzene-1,3-dicarboxamide] yielded an IC50 in test [2] (setting [3]) of 1.3 nM. In test [2], the Emax came out at 74%.

In test [1], `O=C(NCc1ccccc1)c1cc(Cl)c(Cl)c(C(=O)Nc2ccccc2)c1` [Example 16, N1-benzyl-4,5-dichloro-N^3-phenylbenzene-1,3-dicarboxamide] had an Emax of 24.8% and an IC50 of 24.7 nM.

The values above are taken from patent US20240150277A1, “Covalent PPARG inverse-agonists” (Bayer Aktiengesellschaft, priority 2022, published 2024).
